Assay results: patent publication US8071810B2, “C5a receptor antagonists” (Jerini AG, priority 2005, dated 2011)

target: T1, human C5a receptor (CD88) (Homo sapiens, UniProt P21730); assay: C5a induced enzyme (glucosaminidase) release assay in RBL cells expressing the human C5a receptor (Example 28); assay type: cell-based; settings: RBL cells with human C5aR; read-out: IC50 for the inhibition of C5a induced enzyme release
T1 construct: expressed in transfected cells; host or cells: rat basophilic leukemia (RBL) cells, stably transfected
T1 sequence (P21730 1-350): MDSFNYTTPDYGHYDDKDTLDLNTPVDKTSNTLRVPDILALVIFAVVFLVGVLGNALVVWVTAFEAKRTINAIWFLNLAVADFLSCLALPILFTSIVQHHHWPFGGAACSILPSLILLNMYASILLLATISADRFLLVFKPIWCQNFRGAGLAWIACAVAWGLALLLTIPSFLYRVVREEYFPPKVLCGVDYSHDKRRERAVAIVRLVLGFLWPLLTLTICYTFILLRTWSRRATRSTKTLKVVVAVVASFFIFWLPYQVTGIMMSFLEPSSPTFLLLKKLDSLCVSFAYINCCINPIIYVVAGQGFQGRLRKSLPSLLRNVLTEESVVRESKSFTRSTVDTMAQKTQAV
How it was run: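 Rat basophilic leukemia (RBL) cells expressing human C5a receptor, at 2×10^6 cells/ml, primed with cytochalasin B, then incubated with test compound 10 min at 37 °C.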

SMILES | IC50 [nM]
CCc1c(N)cc(Cl)c(CC)c1NC(=O)N(c1ccc(C(C)C)cc1)[C@@H](C)c1ccc(F)cc1 [compound 81, (S)-3-(3-amino-5-chloro-2,6-diethyl-phenyl)-1-[1-(4-fluor-phenyl)-ethyl]-1-(4-isopropyl-phenyl)-urea] | 38
CCc1c(N)cc(Cl)c(CC)c1NC(=O)N(c1ccc(C(C)C)cc1)[C@@H](C)c1ccc(C)cc1 [compound 73, (S)-3-(3-amino-5-chloro-2,6-diethyl-phenyl)-1-(4-isopropyl-phenyl)-1-(1-p-tolyl-ethyl)-urea] | 32
CCc1c(N)cc(Cl)c(CC)c1NC(=O)N(Cc1ccc(Cl)cc1)c1ccc(NC)cc1 | 19

same assay, conditions: inhibition of C5a induced enzyme release, RBL cells with human C5aR; read-out: Activity-range (antagonistic activity, IC50 enzyme release)

SMILES | IC50 [nM]
CCc1c(N)cc(Cl)c(CC)c1NC(=O)N(Cc1ccc(Cl)cn1)c1ccc(C(C)C)cc1 [compound 105, 3-(3-amino-5-chloro-2,6-diethyl-phenyl)-1-(5-chloro-pyridin-2-ylmethyl)-1-(4-isopropyl-phenyl)-urea] | 200 to 5000
CCc1ccc(N)c(CC)c1NC(=O)N(c1ccc(C(C)C)cc1)[C@H](C)c1ccc(OC)cc1 [compound 70, (R)-3-(3-amino-2,6-diethyl-phenyl)-1-(4-isopropyl-phenyl)-1-[1-(4-methoxy-phenyl)-ethyl]-urea] | 200 to 5000
CCc1c(Cl)cc(N=O)c(CC)c1NC(=O)N(c1ccc(NC)cc1)[C@@H](C)c1ccc(Cl)cc1 [compound 133, (S)-3-(3-chloro-2,6-diethyl-5-nitroso-phenyl)-1-[1-(4-chloro-phenyl)-ethyl]-1-(4-methylamino-phenyl)-urea] | < 60
CCc1c(N)cc(Cl)c(CC)c1NC(=O)N(c1ccc(OC)cc1)[C@@H](C)c1ccc(Cl)cc1 [compound 92, (S)-3-(3-amino-5-chloro-2,6-diethyl-phenyl)-1-[1-(4-chloro-phenyl)-ethyl]-1-(4-methoxy-phenyl)-urea] | 60 to 200
CCc1c(N)cc(Cl)c(CC)c1NC(=O)N(Cc1ccc(OC)cc1)c1ccc2c(c1)CCC2 [compound 44, 3-(3-amino-5-chloro-2,6-diethyl-phenyl)-1-indane-5-yl-1-(4-methoxy-benzyl)-urea] | 200 to 5000
COc1ccc(CN(C(=O)Nc2c(C)ccc3c2CCCN3)c2ccc(C(C)C)cc2)cc1 [compound 40, 1-(4-isopropyl-phenyl)-1-(4-methoxy-benzyl)-3-(6-methyl-1,2,3,4-tetrahydro-chinolin-5-yl)-urea] | > 5000
CCc1c(N)cc(Cl)c(CC)c1NC(=O)N(Cc1ccc2c(c1)CCO2)c1ccc(C(C)C)cc1 [compound 65, 3-(3-amino-5-chloro-2,6-diethyl-phenyl)-1-(2,3-dihydro-benzofuran-5-ylmethyl)-1-(4-isopropyl-phenyl)-urea] | 60 to 200
CCc1c(N)cc(Cl)c(CC)c1NC(=O)N(c1ccc(C(C)C)cc1)C1CCc2ccccc21 (stereo not drawn) [compound 84, 3-(3-amino-5-chloro-2,6-diethyl-phenyl)-1-indane-1-yl-1-(4-isopropyl-phenyl)-urea] | 200 to 5000
CCc1c(Cl)cc(NCC(=O)N(C)C)c(CC)c1NC(=O)N(Cc1ccc(OC)cc1)c1ccc(C(C)C)cc1 [compound 37, 2-{5-chloro-2,4-diethyl-3-[3-(4-isopropyl-phenyl)-3-(4-methoxy-benzyl)-ureido]-phenylamino}-N,N-dimethyl-acetamide] | 200 to 5000
C#Cc1ccc(N(Cc2ccc(OC)cc2)C(=O)Nc2c(CC)c(N)cc(Cl)c2CC)cc1 [compound 85, 3-(3-amino-5-chloro-2,6-diethyl-phenyl)-1-(4-ethynyl-phenyl)-1-(4-methoxy-benzyl)-urea] | 200 to 5000
CCc1c(N)cc(Cl)c(CC)c1NC(=O)N(Cc1ccc(OC(F)(F)F)cc1)c1ccc(C(C)C)cc1 [compound 33, 3-(3-amino-5-chloro-2,6-diethyl-phenyl)-1-(4-isopropyl-phenyl)-1-(4-trifluoromethoxy-benzyl)-urea] | 200 to 5000
CCc1ccc(N(C(=O)Nc2c(CC)c(N)cc(Cl)c2CC)C(C[N+](=O)[O-])c2ccccc2)cc1 (stereo not drawn) [compound 112, 3-(3-amino-5-chloro-2,6-diethyl-phenyl)-1-(4-ethyl-phenyl)-1-(2-nitro-1-phenyl-ethyl)-urea] | 200 to 5000
CCc1ccc(NCC(=O)OC)c(CC)c1NC(=O)N(Cc1ccc(OC)cc1)c1ccc(C(C)C)cc1 [compound 30, {2,4-diethyl-3-[3-(4-isopropyl-phenyl)-3-(4-methoxy-benzyl)-ureido]-phenylamino}-acetic acid methyl ester] | 200 to 5000
COc1ccc(CN(C(=O)Nc2c(C(C)C)cccc2C(C)C)c2ccc(C(C)C)cc2)cc1 [compound 134, 3-(2,6-diisopropyl-phenyl)-1-(4-isopropyl-phenyl)-1-(4-methoxy-benzyl)-urea] | 200 to 5000
CCc1ccc(N(Cc2ccc(Br)cc2)C(=O)Nc2c(CC)c(N)cc(Cl)c2CC)cc1 [compound 99, 3-(3-amino-5-chloro-2,6-diethyl-phenyl)-1-(4-bromo-benzyl)-1-(4-ethyl-phenyl)-urea] | < 60
CCc1c(N)cc(Cl)c(CC)c1NC(=O)N(c1ccc(OC)cc1CO)[C@@H](C)c1ccc(Cl)cc1 [compound 109, (S)-3-(3-amino-5-chloro-2,6-diethyl-phenyl)-1-[1-(4-chloro-phenyl)-ethyl]-1-(2-hydroxymethyl-4-methoxy-phenyl)-urea] | 200 to 5000
CCc1c(N)cc(Cl)c(CC)c1NC(=O)N(Cc1ccc(Cl)cc1)c1ccc(OC)c2ccccc12 [compound 115, 3-(3-amino-5-chloro-2,6-diethyl-phenyl)-1-(4-chloro-benzyl)-1-(4-methoxy-naphthaline-1-yl)-urea] | 60 to 200
CCc1ccc(N)c(CC)c1NC(=O)N(c1ccc(C(C)C)cc1)C1CCc2ccccc21 (stereo not drawn) [compound 90, 3-(3-amino-2,6-diethyl-phenyl)-1-indane-1-yl-1-(4-isopropyl-phenyl)-urea] | 200 to 5000
CCc1c(Cl)cc(NCC(N)=O)c(CC)c1NC(=O)N(Cc1ccc(OC)cc1)c1ccc(C(C)C)cc1 [compound 46, 2-{5-chloro-2,4-diethyl-3-[3-(4-isopropyl-phenyl)-3-(4-methoxy-benzyl)-ureido]-phenylamino}-acetamide] | 200 to 5000
CCc1c(N)cc(Cl)c(CC)c1NC(=O)N(Cc1ccc(Cl)cc1)c1ccc(NC)c2ccccc12 [compound 139, 3-(3-amino-5-chloro-2,6-diethyl-phenyl)-1-(4-chloro-benzyl)-1-(4-methylamino-naphthalin-1-yl)-urea] | 200 to 5000
CCc1c(N)cc(Cl)c(CC)c1NC(=O)N(Cc1ccc(C)cc1)c1ccc(C(C)C)cc1 [compound 34, 3-(3-amino-5-chloro-2,6-diethyl-phenyl)-1-(4-isopropyl-phenyl)-1-(4-methyl-benzyl)-urea] | 60 to 200
CCc1c(N)cc(Cl)c(CC)c1NC(=O)N(Cc1ccccc1)c1ccc(C(C)C)cc1 [compound 43, 3-(3-amino-5-chloro-2,6-diethyl-phenyl)-1-benzyl-1-(4-isopropyl-phenyl)-urea] | 200 to 5000
CCc1ccc(N(Cc2ccc(OC)cc2)C(=O)Nc2c(CC)c(N)cc(Cl)c2CC)cc1 [compound 32, 3-(3-amino-5-chloro-2,6-diethyl-phenyl)-1-(4-ethyl-phenyl)-1-(4-methoxy-benzyl)-urea] | 200 to 5000
CCc1c(N)cc(Cl)c(CC)c1NC(=O)N(c1ccc(C(C)C)cc1)[C@H](C)c1ccc(C)cc1 [compound 57, (R)-3-(3-Amino-5-chloro-2,6-diethyl-phenyl)-1-(4-isopropyl-phenyl)-1-(1-p-tolyl-ethyl)-urea] | 200 to 5000
